Assay results taken from US6573261B2, “Method for treating or preventing psychosomatic and psychoimmunologic disorders” (Merck & Co., Inc., priority 1997, dated 2003).

Tests used:
[1] = system: foot tapping in gerbils induced by central injection of an NK1 agonist; assay: Gerbil foot-tapping assay; assay type: in vivo, Mongolian gerbils; settings: i.v.
Text: CNS penetrant NK-1 receptor antagonists for use in the present invention can be identified by their ability to inhibit foot tapping in gerbils induced by anxiogenic agents (such as pentagastrin) or central infusion of NK-1 receptor agonists such as GR73632, or caused by aversive stimulation such as foot shock or single housing, based on the method of Rupniak & Williams, Eur. J. Pharmacol., 1994, 265, 179.
Male or female Mongolian gerbils (35-70g) are anaesthetised by inhalation of an isoflurane/oxygen mixture to permit exposure of the jugular vein in order to permit administration of test compounds or vehicle in an injection volume of 5 ml/kg i.v. Alternatively, test compounds may be administered orally or by subcutaneous or intraperitoneal routes. The wound is closed and a second skin incision is made in the midline of the scalp to expose the skull. An anxiogenic agent (e.g. pentagastrin) or a selective NK-1 receptor agonist (e.g. GR73632 (d Ala[L-Pro^9,Me-Leu^10]-substance P-(7-11))) is infused directly into the cerebral ventricles (e.g. 3 pmol in 5 μl i.c.v. depending upon the agent) by vertical insertion of a cuffed 27 gauge needle to a depth of 4.5 mm below bregma. […] The duration and/or intensity of hind foot tapping is then recorded continuously for 5 minutes.

[2] = system: distress vocalisations in guinea-pig pups; assay: Separation-induced vocalisation assay; assay type: in vivo, guinea-pigs; settings: p.o.
Protocol: On test days each pup receives an oral dose or a s.c. or i.p. injection of test compound or vehicle and is then immediately returned to the home cage with its mother and siblings for 30 minutes to 60 minutes (or for up to 4 hours following an oral dose, dependant upon the oral pharmacokinetics of the test compound) before social isolation for 15 minutes as described above. […] Between 6 and 8 animals receive each test compound at each dose tested.

Compound: C[C@@H](O[C@H]1OCCN(Cc2n[nH]c(=O)[nH]2)[C@H]1c1ccc(F)cc1)c1cc(C(F)(F)F)cc(C(F)(F)F)c1 [2-(R)-(1-(R)-(3,5-bis(trifiuoromethyl)phenyl)-ethoxy)-3-(S)-(4-fluorophenyl)-4-(3-(5-oxo-1H,4H-1,2,4-triazolo)methyl)-morpholine]
- gerbil foot-tapping (5 mins.): ID50 ([1]; 5 mins.): ID50 = 0.36 mg/kg i.v.
- gerbil foot-tapping (24 hrs.): ID50 ([1]; 24 hrs. prior to challenge): ID50 = 0.33 mg/kg i.v.
- guinea-pig vocalisation (4 hr. pre-treatment): ID50 [2]: ID50 = 0.73 mg/kg p.o.
